“Also recorded” adds a separate entry of the source.
What was measured:
SK-UT-1 cells = test: Flow cytometry DNA cell cycle analysis; type: cell-based, human; settings: 48 h treatment
[1] = tested on: POMC (Rb deficient) tumours in POMC-Cre/POMC-Luc;Rb-flox/flox compound mutant mice; settings: doxorubicin 5 mg/kg intravenously once a week for four weeks; in the combination, roscovitine 500 mg/kg orally twice daily for two days before each doxorubicin
Description: A conditional mouse model for retinoblastoma-dependent sporadic cancer was generated (Vooijs et al; Cancer Res 2002 Mar 15; 62(6): 1862-7; 2002) which permits non-invasive monitoring of pituitary tumour development in live animals via in vivo bioluminescence imaging of luciferase expression. This mouse model permits the longitudinal monitoring of tumour onset, progression and response to therapeutic agents that specifically target the retinoblastoma pathway. By way of summary, a retinoblastoma conditional KO line was crossed with a POMC-Cre/POMC-Luciferase transgenic line to generate POMC-Cre/POMC-Luc;Rb-flox/flox compound mutant mice. These mice develop POMC (Rb deficient) tumours (Vooijs et al, ibid) and as illustrated in FIG. 3.
In this study, doxorubicin was administered once a week for four weeks (5 mg/kg; intravenously).

[2] = tested on: osteosarcoma line SaOS-2 (pRb-deficient); settings: pRb-deficient SaOS-2, in combination with doxorubicin; not seen in SaOS-2 transfected with Rb; cited from earlier work

COc1cccc2c1C(=O)c1c(O)c3c(c(O)c1C2=O)C[C@@](O)(C(=O)CO)C[C@@H]3O[C@H]1C[C@H](N)[C@H](O)[C@H](C)O1 [Doxo]
% of total, G1 (SK-UT-1 cells): 9% | % of total, G2M (SK-UT-1 cells): 43% | % of total, Go (SK-UT-1 cells): 22% | % of total, S (SK-UT-1 cells): 18% | tumour response (bioluminescence) [1]: delay tumorigenesis; also recorded: temporarily halts tumour progression

CN1CC[C@H](c2c(O)cc(O)c3c(=O)cc(-c4ccccc4Cl)oc23)[C@H](O)C1 [flavopiridol]
sensitisation to the cytotoxic effects of doxorubicin [2]: significantly sensitised

CC[C@H](CO)Nc1nc(NCc2ccccc2)c2ncn(C(C)C)c2n1 [Roscovitine, 6-benzylamino-2-[(R)-1-ethyl-2-hydroxyethylamino]-9-isopropylpurine]
% of total, G1 (SK-UT-1 cells): 36% | % of total, G2M (SK-UT-1 cells): 19% | % of total, Go (SK-UT-1 cells): 23% | % of total, S (SK-UT-1 cells): 16%
